According to patent publication US7071376B2, “Genes encoding p-coumarate 3-hydroxylase (C3H) and methods of use” (Purdue Research Foundation, priority 2000, dated 2006):
Read-outs that look alike come from different tables or passages of the source.

Legend:
[1] = biological target: T1, C3H polypeptide (CYP98A3) (Arabidopsis thaliana, UniProt O22203); assay: in vitro C3H assay with microsomes from yeast expressing CYP98A3
T1 sequence (O22203 1-508): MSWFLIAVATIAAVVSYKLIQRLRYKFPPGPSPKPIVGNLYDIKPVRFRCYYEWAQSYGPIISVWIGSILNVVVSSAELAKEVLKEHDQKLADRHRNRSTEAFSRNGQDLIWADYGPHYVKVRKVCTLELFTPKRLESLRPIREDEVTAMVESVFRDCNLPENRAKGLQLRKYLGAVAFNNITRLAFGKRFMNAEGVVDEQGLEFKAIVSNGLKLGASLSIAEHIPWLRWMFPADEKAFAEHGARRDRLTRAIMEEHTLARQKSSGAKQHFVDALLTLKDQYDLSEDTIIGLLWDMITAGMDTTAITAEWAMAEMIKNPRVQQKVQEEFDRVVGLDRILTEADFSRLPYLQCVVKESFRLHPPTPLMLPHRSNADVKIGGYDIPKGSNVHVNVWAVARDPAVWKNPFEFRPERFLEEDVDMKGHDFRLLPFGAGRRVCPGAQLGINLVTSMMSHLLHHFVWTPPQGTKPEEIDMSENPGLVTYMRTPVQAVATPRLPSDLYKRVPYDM
Protocol: For C3H assays, an NADPH regenerating system consisting of 1 mM NADP^+, 10 mM glucose-6-phosphate, and 1 unit glucose-6-phosphate dehydrogenase was pre-incubated at 30 C for 5 min to permit the generation of NADPH in the presence of one of the putative C3H substrates in a final volume of 400 μL of assay buffer. Assays were initiated by the addition of 100 μL of microsomes and were allowed to incubate for 60 min at 30C before being terminated by boiling. Assays were clarified by centrifugation for 20 min at 13,000 ×g, and were analyzed directly by HPLC on a Microsorb-MV C-18 column (Rainin, Woburn Mass.) using a gradient of solvent A (1.0% acetic acid in water) and solvent B (acetonitrile; 0 to 10% B in 5 min, 10 to 25% B in 25 min; flow rate 1 mL min^−1). C3H reaction products were quantified using UV detection (caffeic acid, 322 nm; caffeyl aldehyde, 340 nm; caffeic acid methyl ester, 324 nm). Assays conducted using microsomes isolated from yeast transformed with pYeDP60 served as negative controls. The apparent Km for p-coumarate methyl ester was determined using triplicate assays analyzed by the Eadie-Hofstee method(Cornish-Bowden, 1995).
To experimentally address these issues, C3H-containing microsomes were prepared for use in in vitro assays of enzymatic activity.

F5H = biological target: T2, F5H (Arabidopsis thaliana, UniProt Q42600); settings: cited from earlier work
T2 construct: host or cells: yeast
T2 sequence (Q42600 1-520): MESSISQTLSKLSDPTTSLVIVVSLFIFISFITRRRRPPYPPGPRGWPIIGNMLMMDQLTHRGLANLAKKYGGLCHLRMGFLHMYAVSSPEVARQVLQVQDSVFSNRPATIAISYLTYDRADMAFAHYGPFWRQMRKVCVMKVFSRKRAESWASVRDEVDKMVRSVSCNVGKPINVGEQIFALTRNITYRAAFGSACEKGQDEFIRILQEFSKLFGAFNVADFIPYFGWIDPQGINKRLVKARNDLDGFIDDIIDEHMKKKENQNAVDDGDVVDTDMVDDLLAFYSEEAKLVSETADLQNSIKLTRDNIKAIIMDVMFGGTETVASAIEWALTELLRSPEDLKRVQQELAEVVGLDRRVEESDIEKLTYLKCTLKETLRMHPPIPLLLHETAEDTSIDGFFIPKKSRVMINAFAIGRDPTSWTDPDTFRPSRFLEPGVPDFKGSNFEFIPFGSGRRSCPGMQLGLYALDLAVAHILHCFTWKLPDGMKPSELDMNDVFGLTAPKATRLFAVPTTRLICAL

[2] = biological target: T1, C3H polypeptide (CYP98A3)
Protocol: WAT11 cells were transformed with pYeDP60, pYeDP60-REF8, and pYeDP60-ref8 (Gietz et al., 1992), cultured and then induced with galactose as described previously (Urban et al., 1994). For in vivo measurements of enzyme activity, cells were grown in media supplemented with 5 mM p-coumaric acid. At the end of the incubation period the medium was extracted with ethylacetate, and analyzed by HPLC as described above.
Finally, WAT11 yeast carrying the control vector and the YeDP60-REF8 vector were assayed for C3H polypeptide activity in vivo by adding p-coumarate directly to the medium of galactose-induced yeast cultures.

[3] = yeast microsomes, NADPH regenerating system, 60 min, 30 C, HPLC

## O=C(/C=C/c1ccc(O)cc1)O[C@@H]1O[C@H](CO)[C@@H](O)[C@H](O)[C@H]1O [1-O-p-coumaroyl—D-glucose]
[1]; [3]
  activity of C3H toward substrate: no activity

## COc1cc(/C=C/C=O)ccc1O [coniferaldehyde]
F5H; substrate of F5H
  Vmax: 5 pKat mg^−1
F5H; substrate of F5H, read-out: Km
  Km: 1 µM

## COc1cc(/C=C/CO)ccc1O [coniferyl alcohol]
F5H; substrate of F5H
  Vmax: 6 pKat mg^−1
F5H; substrate of F5H, read-out: Km
  Km: 3 µM

## COc1cc(/C=C/C(=O)O)ccc1O [ferulate]
[1]; [3]
  activity of C3H toward substrate: No activity
F5H; ferulate hydroxylation by F5H
  Km: 1000 µM

## O=C/C=C/c1ccc(O)cc1 [p-coumaraldehyde]
[1]; [3]
  activity of C3H toward substrate: Levels of activity comparable to those seen with p-coumarate

## O=C(O)/C=C/c1ccc(O)cc1 [p-coumarate]
[1]
  activity of C3H toward substrate: so low that it precluded detailed kinetic analysis
[2]
  hydroxylation of substrate added to yeast medium (product caffeic acid): capable of hydroxylating

## CC(C)(COP(=O)(O)OP(=O)(O)OC[C@H]1O[C@@H](n2cnc3c(N)ncnc32)[C@H](O)[C@@H]1OP(=O)(O)O)[C@@H](O)C(=O)NCCC(=O)NCCSC(=O)/C=C/c1ccc(O)cc1 [p-coumaroyl CoA]
[1]; [3]
  activity of C3H toward substrate: no activity

## COC(=O)/C=C/c1ccc(O)cc1 [p-coumaroyl methyl ester]
[1]
  activity of C3H toward substrate: much higher levels of activity
[1]; read-out: apparent Km, substrate of C3H, yeast microsomes, triplicate assays, Eadie-Hofstee method
  Km: 2.5 ± 0.1 mM

## OCC=Cc1ccc(O)cc1 [p-hydroxycinnamyl alcohol]
[1]; [3]
  activity of C3H toward substrate: no activity
